The target of experiment [1] is T1, unphosphorylated c-FMS kinase (uFMS, Seq. ID no. 1) (Homo sapiens, UniProt P07333).
T1 construct: purchased Millipore
T1 sequence (P07333 538-972): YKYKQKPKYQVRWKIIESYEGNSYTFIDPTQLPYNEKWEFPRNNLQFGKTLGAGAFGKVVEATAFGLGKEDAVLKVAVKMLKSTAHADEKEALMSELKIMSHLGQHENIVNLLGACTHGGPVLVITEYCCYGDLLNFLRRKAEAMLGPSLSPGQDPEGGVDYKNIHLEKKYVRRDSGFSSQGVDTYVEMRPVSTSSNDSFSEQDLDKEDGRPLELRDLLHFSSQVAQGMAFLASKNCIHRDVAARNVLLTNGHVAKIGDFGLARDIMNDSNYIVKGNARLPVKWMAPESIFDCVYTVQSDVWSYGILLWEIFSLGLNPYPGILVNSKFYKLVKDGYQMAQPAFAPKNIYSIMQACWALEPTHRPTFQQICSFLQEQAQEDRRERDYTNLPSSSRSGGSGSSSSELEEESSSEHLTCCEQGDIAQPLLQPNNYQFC
The experiment is described as follows: uFMS kinase assay (pyruvate kinase/lactate dehydrogenase coupled). Type of experiment: biochemical. Conditions: ATP 500 μM.

For experiment [2], the target named is T2, unphosphorylated c-KIT kinase (uKIT, Seq. ID no. 2) (Homo sapiens, UniProt P10721).
T2 construct: uKit with N-terminal GST fusion used for
T2 sequence (P10721 with tags, fused parts or gaps): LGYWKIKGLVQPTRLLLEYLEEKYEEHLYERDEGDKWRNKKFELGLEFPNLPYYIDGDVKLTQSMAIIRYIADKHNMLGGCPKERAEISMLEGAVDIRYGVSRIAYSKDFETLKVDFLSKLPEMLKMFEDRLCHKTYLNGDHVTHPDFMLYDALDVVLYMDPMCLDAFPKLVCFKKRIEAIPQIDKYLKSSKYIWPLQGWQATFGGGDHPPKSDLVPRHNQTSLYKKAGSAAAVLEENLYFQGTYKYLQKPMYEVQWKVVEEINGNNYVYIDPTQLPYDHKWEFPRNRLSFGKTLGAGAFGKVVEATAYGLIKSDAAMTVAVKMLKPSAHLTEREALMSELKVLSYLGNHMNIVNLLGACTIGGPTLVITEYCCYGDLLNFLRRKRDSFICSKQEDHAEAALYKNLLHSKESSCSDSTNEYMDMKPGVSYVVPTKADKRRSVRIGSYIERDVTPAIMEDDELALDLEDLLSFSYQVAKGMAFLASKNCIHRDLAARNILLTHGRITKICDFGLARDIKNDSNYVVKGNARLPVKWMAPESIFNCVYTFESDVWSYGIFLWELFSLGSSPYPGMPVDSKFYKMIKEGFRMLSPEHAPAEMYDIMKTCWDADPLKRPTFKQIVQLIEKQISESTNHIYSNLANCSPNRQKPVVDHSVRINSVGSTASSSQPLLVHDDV
Nature of the experiment: uKit kinase assay (pyruvate kinase/lactate dehydrogenase coupled). Type of experiment: biochemical. Conditions: ATP 2000 μM.
Procedure: In this assay, the oxidation of NADH (thus the decrease at A340 nm) was continuously monitored spectrophometrically. […] The inhibition reaction was started by mixing serial diluted test compound with the above reaction mixture. The absorption at 340 nm was monitored continuously for 4 hours at 30° C. on Synergy 2 plate reader (BioTech).

Experiment [3] deals with T3, unphosphorylated PDGFRβ kinase (uPDGFRβ, Seq. ID No. 3) (Homo sapiens, UniProt P09619).
T3 construct: purchased DeCode
T3 sequence (P09619 557-1105): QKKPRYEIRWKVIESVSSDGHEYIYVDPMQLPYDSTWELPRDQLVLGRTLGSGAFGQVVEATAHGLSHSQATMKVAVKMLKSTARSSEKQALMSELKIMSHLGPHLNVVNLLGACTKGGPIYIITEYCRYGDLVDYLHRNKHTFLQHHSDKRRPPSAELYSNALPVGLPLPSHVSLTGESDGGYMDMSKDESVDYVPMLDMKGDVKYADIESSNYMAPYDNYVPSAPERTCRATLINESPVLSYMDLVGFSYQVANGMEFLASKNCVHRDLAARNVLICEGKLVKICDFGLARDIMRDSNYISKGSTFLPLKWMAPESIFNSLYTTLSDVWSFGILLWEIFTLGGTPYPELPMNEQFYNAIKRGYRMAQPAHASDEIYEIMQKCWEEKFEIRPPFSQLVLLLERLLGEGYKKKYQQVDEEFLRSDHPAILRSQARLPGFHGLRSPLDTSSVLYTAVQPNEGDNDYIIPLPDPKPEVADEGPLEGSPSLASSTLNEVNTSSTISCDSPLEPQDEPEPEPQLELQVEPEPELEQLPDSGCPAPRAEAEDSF
Nature of the experiment: Unphosphorylated PDGFRβ kinase assay (pyruvate kinase/lactate dehydrogenase coupled). Conditions: ATP 500 μM. Type of experiment: biochemical. From the text:
Unphosyhorylated PDGFRβ (uPDGFRβkinase (Seq. ID No. 3) assay

A further experiment concerns M-NFS-60 cells. Nature of the experiment: M-NFS-60 cell proliferation assay. Type of experiment: cell-based. As to conditions: 67 h incubation, resazurin.
For a further experiment, the system named is osteoclast precursors. Nature of the experiment: Osteoclast tartrate-resistant acid phosphatase assay. The class given is cell-based. As to conditions: Osteoclast; 7-14 days, RANKL and M-CSF.

The record followed here is US9309224B2 (Deciphera Pharmaceuticals, LLC, priority 2013, dated 2016).

pIC50: −log10 of the molar value.

Procedure for M-NFS-60 cells: M-NFS-60 Cell Proliferation Assay A serial dilution of test compound was dispensed into a 384-well black clear bottom plate (Corning, Corning, N.Y.). Two thousand five hundred cells were added per well in 50 μL complete growth medium. […] IC50 values were calculated from a series of percent inhibition values determined at a range of inhibitor concentrations using software routines as implemented in the GraphPad Prism software package.

By pIC50 is commonly meant the negative decadic logarithm of the IC50, by convention in mol/L. On to `CN1CCN(C(=O)Nc2cc(Oc3ccc(NC(=O)NC(=O)C(C)(C)C)nc3)ccn2)CC1` [Example 45, 4-methyl-N-(4-((6-(3-pivaloylureido)pyridin-3-yl)oxy)pyridin-2-yl)piperazine-1-carboxamide], for which the pIC50 in experiment [1] is over 8.00; in experiment [2], 6.00 to 7.00; in experiment [3] it was 6.00 to 7.00; with M-NFS-60 cells, over 8.00; with osteoclast precursors, over 8.00.
